Assays:
inhibitory DREADD = molecular target: T1, inhibitory DREADD (Homo sapiens, UniProt P08173, A203G/Y113C); test: c-fos / mCherry overlap in ILA after familiar animal presentation, inhibitory DREADD; format: in vivo, CRH-Cre mice; conditions: CNO i.p. 30 min before familiar animal presentation; vs. saline
T1 construct: host or cells: ILA CRH+ neurons of CRH-Cre mice, Cre-dependent AAV2/8 transduction in vivo
T1 sequence (P08173 1-479 Y113C/A203G): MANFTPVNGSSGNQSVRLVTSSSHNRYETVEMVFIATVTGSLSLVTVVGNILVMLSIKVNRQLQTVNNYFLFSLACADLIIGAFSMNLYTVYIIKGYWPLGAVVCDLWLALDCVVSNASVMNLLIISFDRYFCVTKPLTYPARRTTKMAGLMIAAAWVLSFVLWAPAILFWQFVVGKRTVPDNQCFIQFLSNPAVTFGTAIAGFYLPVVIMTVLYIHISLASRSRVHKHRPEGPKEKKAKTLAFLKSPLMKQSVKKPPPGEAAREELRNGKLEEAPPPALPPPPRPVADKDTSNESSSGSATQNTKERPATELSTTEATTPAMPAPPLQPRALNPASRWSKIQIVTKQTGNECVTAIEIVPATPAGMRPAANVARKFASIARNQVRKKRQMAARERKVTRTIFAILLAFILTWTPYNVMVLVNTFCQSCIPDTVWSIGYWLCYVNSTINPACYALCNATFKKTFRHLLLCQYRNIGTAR
Method: (§1) Mice were anesthetized using isoflurane then perfused in the heart with 10 mL saline and their brains were quickly extracted and incubated in 4% PFA overnight. After 1 h washing in PBS, 60 µm slices were prepared using a Leica VT1000S vibratome (Leica Biosystems). Unless indicated otherwise, slices were permeabilized for 2h in PBS with 0.5% Triton-X100 (T9284, Sigma-Aldrich) in PBS before being incubated overnight at 4°C with primary antibodies diluted in PBS with 0.5% Triton-X in PBS. The slices were washed in PBS for 1 h then incubated overnight at 4°C with secondary antibodies from Thermo-Fisher Scientific at a concentration of 1:500 diluted in PBS with 0.1% Triton-X. Hoechst counterstain was applied (Hoechst 33342 at 1:1000 for 30 min in PBS at RT) prior to mounting the slice using fluoromount (Sigma-Aldrich). Images were acquired using inverted confocal microscopes (Ism 900, Zeiss and SPII, Leica) or an epifluorescent microscope (Thunder, Leica). For post-hoc immunocytochemistry after patch-clamp recordings, slices were fixed for 1 h in PBS with 4% PFA and streptavidin was applied during secondary incubation. • For mRuby and GFP labelling, primary incubation was performed overnight at 4°C with rabbit anti-RFP (1:500, Rockland Antibody, #600-401-379) and chicken anti-GFP (1:1000, Aves, #GFP-1020) antibodies. […]

excitatory DREADD = molecular target: T2, excitatory DREADD (Homo sapiens, UniProt P20309, A239G/Y149C); test: c-fos / mCherry overlap in ILA after familiar animal presentation, excitatory DREADD; format: in vivo, CRH-Cre mice; conditions: CNO i.p. 30 min before familiar animal presentation; vs. saline
T2 construct: host or cells: ILA CRH+ neurons of CRH-Cre mice, Cre-dependent AAV2/5 transduction in vivo
T2 sequence (P20309 whole entry Y149C/A239G): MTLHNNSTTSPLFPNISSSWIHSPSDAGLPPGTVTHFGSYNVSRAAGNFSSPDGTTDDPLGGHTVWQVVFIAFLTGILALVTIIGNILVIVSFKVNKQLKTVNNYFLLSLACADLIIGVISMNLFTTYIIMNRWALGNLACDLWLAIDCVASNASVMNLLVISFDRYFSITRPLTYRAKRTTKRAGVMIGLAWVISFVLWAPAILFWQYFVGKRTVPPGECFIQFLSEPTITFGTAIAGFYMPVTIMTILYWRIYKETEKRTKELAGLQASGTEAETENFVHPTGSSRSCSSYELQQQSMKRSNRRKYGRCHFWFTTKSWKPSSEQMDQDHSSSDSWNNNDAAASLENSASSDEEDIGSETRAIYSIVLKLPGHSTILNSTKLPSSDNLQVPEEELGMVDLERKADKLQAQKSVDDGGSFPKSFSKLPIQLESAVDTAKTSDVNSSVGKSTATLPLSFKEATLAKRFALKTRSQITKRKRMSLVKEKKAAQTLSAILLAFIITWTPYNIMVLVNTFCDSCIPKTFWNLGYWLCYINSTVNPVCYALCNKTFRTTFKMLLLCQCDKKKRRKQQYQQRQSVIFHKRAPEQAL
Method: as §1

C[N+]1([O-])CCN(C2=Nc3cc(Cl)ccc3Nc3ccccc32)CC1 [CNO, clozapine N-oxide]
c-fos/mCherry+ cells in ILA (inhibitory DREADD): less c-fos/mCherry+ cells compared to the saline control | c-fos/mCherry+ overlap in ILA (excitatory DREADD): increased c-fos/mCherry+ overlap

— patent publication EP4516309A1, “CRHR1 AGONISTS FOR USE IN THE TREATMENT OF SOCIAL ANXIETY DISORDERS” (Consejo Superior de Investigaciones Cientificas, priority 2023, dated 2025)
